Test results as given in PubChem BioAssay AID1963872 (Molecular Pharmacology Branch, DTP, NCI, 2024).

System: KRAS patient-derived spheroids with HUVEC/MSC, viability
Test: Anticancer human tumor 519858-162-T-J1-PDC patient-derived colon adenocarcinoma cell line growth inhibition [KRAS2]
Conditions: for IC50: curve of first compound; for viability, T/C: stronger effect = lower value
How it was run: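 KRAS-mutant tumor cells were grown as spheroids with HUVEC endothelial cells and human MSCs as stroma. Targeted agents were tested alone and with KRAS pathway inhibitors. Doses started at or near clinical Cmax, or 10 microM, descending half-log.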

[1] = second compound 0.1 µM, first compound 0.000316 µM
[2] = second compound 0.1 µM, first compound 0.001 µM
[3] = second compound 0.1 µM, first compound 0.00316 µM
[4] = second compound 0.1 µM, first compound 0.01 µM
[5] = second compound 0.1 µM, first compound 0.0316 µM
[6] = second compound 0.316 µM, first compound 0.000316 µM
[7] = second compound 0.316 µM, first compound 0.001 µM
[8] = second compound 0.316 µM, first compound 0.00316 µM
[9] = second compound 0.316 µM, first compound 0.01 µM
[10] = second compound 0.316 µM, first compound 0.0316 µM
[11] = second compound 1 µM, first compound 0.000316 µM
[12] = second compound 1 µM, first compound 0.001 µM
[13] = second compound 1 µM, first compound 0.00316 µM
[14] = second compound 1 µM, first compound 0.01 µM
[15] = second compound 1 µM, first compound 0.0316 µM
[16] = second compound 3.16 µM, first compound 0.000316 µM
[17] = second compound 3.16 µM, first compound 0.001 µM
[18] = second compound 3.16 µM, first compound 0.00316 µM
[19] = second compound 3.16 µM, first compound 0.01 µM
[20] = second compound 3.16 µM, first compound 0.0316 µM
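Further: compound exposure lasted seven days before readout.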
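Wherever viability, T/C is given: 100% = DMSO vehicle control viability.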

Compound CN(C)C/C=C/C(=O)Nc1cc2c(Nc3ccc(F)c(Cl)c3)ncnc2cc1O[C@H]1CCOC1 + COc1cc2nc(C)nc(NC(C)c3cc(N)cc(C(F)(F)F)c3)c2cc1OC1CCOC1 has an IC50 (second compound 0.1 µM) greater than 100 nM, an IC50 (second compound 0.316 µM) greater than 100 nM and an IC50 (second compound 1 µM) greater than 100 nM. For the same compound, the IC50 (second compound 3.16 µM) was 81.3 nM, the IC50 (second compound 10 µM) was greater than 100 nM and the viability, T/C [1] was 87%. The viability, T/C [2] was 91.3%, the viability, T/C [3] was 92.7% and the viability, T/C [4] was 92.6%. For the same compound, the viability, T/C [5] was 78.7%, the viability, T/C (second compound 0.1 µM, first compound 0.1 µM) was 81.2% and the viability, T/C [6] was 93%. The viability, T/C [7] was 73.7%, the viability, T/C [8] was 73.4% and the viability, T/C [9] was 73.5%. The viability, T/C [10] was 90.8%, the viability, T/C (second compound 0.316 µM, first compound 0.1 µM) was 98.9% and the viability, T/C [11] was 138%. It also gave a viability, T/C [12] of 146%, a viability, T/C [13] of 101% and a viability, T/C [14] of 101%. The viability, T/C [15] was 95.5%, the viability, T/C (second compound 1 µM, first compound 0.1 µM) was 91.2% and the viability, T/C [16] was 85.6%. The viability, T/C [17] was 80.7%, the viability, T/C [18] was 90.3% and the viability, T/C [19] was 88.3%. For the same compound, the viability, T/C [20] was 75.5%, the viability, T/C (second compound 3.16 µM, first compound 0.1 µM) was 44.5% and the viability, T/C (second compound 10 µM, first compound 0.000316 µM) was 73.2%. The viability, T/C (second compound 10 µM, first compound 0.001 µM) was 62.5%, the viability, T/C (second compound 10 µM, first compound 0.00316 µM) was 76.9% and the viability, T/C (second compound 10 µM, first compound 0.01 µM) was 88.3%. The viability, T/C (second compound 10 µM, first compound 0.0316 µM) was 70.3% and the viability, T/C (second compound 10 µM, first compound 0.1 µM) was 62.3%.

In the case of CC(=O)Nc1cccc(-n2c(=O)n(C3CC3)c(=O)c3c(Nc4ccc(I)cc4F)n(C)c(=O)c(C)c32)c1 + C=CC(=O)N1CCN(c2nc(OCC3CCCN3C)nc3c2CCN(c2cccc4cccc(C)c24)C3)CC1CC#N, the IC50 (second compound 0.0316 µM) is reported as 3.55 nM, the IC50 (second compound 0.1 µM) is reported as 5.97 nM and the IC50 (second compound 0.316 µM) is reported as 4.47 nM. For the same compound, the IC50 (second compound 1 µM) was 0.581 nM, the IC50 (second compound 3.16 µM) was 0.786 nM and the viability, T/C (second compound 0.0316 µM, first compound 0.0001 µM) was 90.6%. For the same compound, the viability, T/C (second compound 0.0316 µM, first compound 0.000316 µM) was 76%, the viability, T/C (second compound 0.0316 µM, first compound 0.001 µM) was 65.5% and the viability, T/C (second compound 0.0316 µM, first compound 0.00316 µM) was 57.8%. It also gave a viability, T/C (second compound 0.0316 µM, first compound 0.01 µM) of 29.8%, a viability, T/C (second compound 0.0316 µM, first compound 0.0316 µM) of 19.4% and a viability, T/C (second compound 0.1 µM, first compound 0.0001 µM) of 59.7%. The viability, T/C [1] was 62.1%, the viability, T/C [2] was 75.4% and the viability, T/C [3] was 63.7%. It also gave a viability, T/C [4] of 38.5%, a viability, T/C [5] of 14.6% and a viability, T/C (second compound 0.316 µM, first compound 0.0001 µM) of 80%. The viability, T/C [6] was 64%, the viability, T/C [7] was 82.4% and the viability, T/C [8] was 58.1%. For the same compound, the viability, T/C [9] was 28.2%, the viability, T/C [10] was 17.5% and the viability, T/C (second compound 1 µM, first compound 0.0001 µM) was 63.1%. The viability, T/C [11] was 42.1%, the viability, T/C [12] was 49.9% and the viability, T/C [13] was 40%. It also gave a viability, T/C [14] of 31%, a viability, T/C [15] of 11.4% and a viability, T/C (second compound 3.16 µM, first compound 0.0001 µM) of 73.5%. For the same compound, the viability, T/C [16] was 59.1%, the viability, T/C [17] was 41% and the viability, T/C [18] was 44%. The viability, T/C [19] was 16.7% and the viability, T/C [20] was 7.17%.
